Measured values from patent publication US12222310B2, “Magnesium ion selective membranes” (Siemens Healthcare Diagnostics Inc., priority 2015, dated 2025).

Test: plasticizer lost from sensor membrane over use life, remaining plasticizer determined by UPLC
Format: physicochemical
Details: membranes in RAPIDPoint systems, at least 25 days, about 10 whole blood samples per business day
Method: Membrane formulations were prepared by using NPOE or ETH 217 plasticizers with polyvinylchloride, magnesium ionophore and lipohilic ion exchange salt. The materials were dissolved in a suitable organic solvent at a solids ratio of 10%. The solutions were deposited on the sensor substrates and the solvent allowed to evaporate yielding the formed membranes. The formulations were optimized to yield membranes with the best obtainable magnesium selectivity over calcium and were generally at least greater than 1:1.
Sensors were incorporated into RAPIDPoint systems (available from Siemens Healthcare Diagnostics Inc.) and tested over at least 25 days. During this time, sensors were calibrated with magnesium containing reagents and exposed to whole blood samples at approximately 10 per business day. In addition, magnesium containing quality control solutions were also run across least 25 days at least once every day. After testing the membranes were removed from the sensor substrate and the amount of remaining plasticizer was determined by UPLC and so the amount of plasticizer lost over time was calculated.

CCCCCCCCCCCCOc1ccccc1[N+](=O)[O-] [ETH 217, 1-dodecyloxy-2-nitrobenzene]
% by wt Plasticizer Lost: 3.9%
